Source: article PMC3902948 (Nucleic Acids Research, 2013)

What was measured:
Details in all cases: read-out: In absence of RNA / KM; no RNA; 100 mM NaCl, 10 mM Tris pH 7.5, 2 mM MgCl2
Prp43-Ntr1(51–99) = system: Prp43-Ntr1(51–99)
Prp43-Ntr1(51–110) = system: Prp43-Ntr1(51–110)
Prp43-Ntr1(51–102) = system: Prp43-Ntr1(51–102)
Prp43-Ntr1(59–110) = system: Prp43-Ntr1(59–110)
Prp43-Ntr1(62–110) = system: Prp43-Ntr1(62–110)
[1] = system: Prp43(1–745)-Ntr1(51–110)

- Km (Prp43-Ntr1(51–99)): 10.7 ± 1.38 µM
- Km (Prp43-Ntr1(51–110)): 39.5 ± 3.92 µM
- Km (Prp43-Ntr1(51–102)): 17.5 ± 2.43 µM
- Km (Prp43-Ntr1(59–110)): 8.77 ± 1.09 µM
- Km (Prp43-Ntr1(62–110)): 10.6 ± 2.18 µM
- Km [1]: 28.3 ± 4.61 µM
Compound: Nc1ncnc2c1ncn2[C@@H]1O[C@H](COP(=O)(O)OP(=O)(O)OP(=O)(O)O)[C@@H](O)[C@H]1O [ATP]
